Columns and labels:
Assay type in all cases: in vivo
[1] = system: Surinam grass (Brachiaria decumbens); assay: Test B pre-/postemergence plant response
Excerpt: (§1) Seeds of plant species selected from blackgrass (Alopecurus myosuroides), downy bromegrass (Bromus tectorum), green foxtail (Setaria viridis), Italian ryegrass (Lolium multiflorum), wheat (Triticum aestivum), wild oat (Avena fatua), deadnettle (henbit deadnettle, Lamium amplexicaule), galium (catchweed bedstraw, Galium aparine), bermudagrass (Cynodon dactylon), Surinam grass (Brachiaria decumbens), cocklebur (Xanthium strumarium), corn (Zea mays), large crabgrass (Digitaria sanguinalis), woolly cupgrass (Eriochloa villosa), giant foxtail (Setaria faberii), goosegrass (Eleusine indica), johnsongrass (Sorghum halepense), kochia (Kochia scoparia), lambsquarters (Chenopodium album), morningglory (Ipomoea coccinea), nightshade (eastern black nightshade, Solanum ptycanthum), yellow nutsedge (Cyperus esculentus), pigweed (Amaranthus retroflexus), ragweed (common ragweed, Ambrosia elatior), Russian thistle (Salsola kali), soybean (Glycine max), sunflower (common oilseed sunflower, Helianthus annuus) and velvetleaf (Abutilon theophrasti) were planted into a blend of loam soil and sand and treated preemergence with test compounds formulated in a non-phytotoxic solvent mixture which included a surfactant.
(§2) At the same time, plants selected from these crop and weed species and also winter barley (Hordeum vulgare), canarygrass (Phalaris minor), chickweed (Stellaria media) and windgrass (Apera spica-venti) were planted in pots containing Redi-Earth® planting medium (Scotts Company, 14111 Scottslawn Road, Marysville, Ohio 43041) comprising spaghnum peat moss, vermiculite, wetting agent and starter nutrients and treated with postemergence applications of some of the test chemicals formulated in the same manner. Plants ranged in height from 2 to 18 cm (1- to 4-leaf stage) for postemergence treatments.
(§3) Treated plants and controls were maintained in a greenhouse for 13 to 15 days, after which time all treated plants were visually evaluated and compared to controls. Plant response ratings, summarized in Table B, are based on a scale of 0 to 100 where 0 is no effect and 100 is complete control. A dash (-) response means no test result.

[2] = system: blackgrass (Alopecurus myosuroides); assay: Test B pre-/postemergence plant response
Excerpt: as §1, §2, §3

[3] = system: cocklebur (Xanthium strumarium); assay: Test B pre-/postemergence plant response
Excerpt: as §1, §2, §3

kochia (Kochia scoparia) = assay: Test B pre-/postemergence plant response
Excerpt: as §1, §2, §3

[4] = system: lambsquarters (Chenopodium album); assay: Test B pre-/postemergence plant response
Excerpt: as §1, §2, §3

[5] = system: pigweed (Amaranthus retroflexus); assay: Test B pre-/postemergence plant response
Excerpt: as §1, §2, §3

soybean (Glycine max) = assay: Test B pre-/postemergence plant response
Excerpt: as §1, §2, §3

[6] = system: velvetleaf (Abutilon theophrasti); assay: Test B pre-/postemergence plant response
Excerpt: as §1, §2, §3

[7] = system: wheat (Triticum aestivum); assay: Test B pre-/postemergence plant response
Excerpt: as §1, §2, §3

wild oat (Avena fatua) = assay: Test B pre-/postemergence plant response
Excerpt: as §1, §2, §3

[8] = system: canarygrass (Phalaris minor); assay: Test B postemergence plant response
Outline: (§4)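 Plants grown in peat/vermiculite medium were sprayed postemergence at 2–18 cm height (1- to 4-leaf stage). After 13–15 days in the greenhouse, response was rated visually against untreated controls on a 0–100 scale (0 no effect, 100 complete control).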

[9] = system: chickweed (Stellaria media); assay: Test B postemergence plant response
Outline: as §4

[10] = system: windgrass (Apera spica-venti); assay: Test B postemergence plant response
Outline: as §4

[11] = Postemergence, 31 g ai/ha, 0 to 100 scale (0 no effect, 100 complete control)
[12] = Postemergence, 62 g ai/ha, scale 0 to 100 (0 no effect, 100 complete control)
[13] = Postemergence, 250 g ai/ha, scale 0 to 100 (0 no effect, 100 complete control), 13 to 15 days
[14] = Postemergence, 125 g ai/ha, scale 0 to 100 (0 no effect, 100 complete control)
[15] = 31 g ai/ha, postemergence, scale 0 to 100, 0 is no effect, 100 is complete control
[16] = 62 g ai/ha, postemergence, 0 is no effect, 100 is complete control, 13 to 15 days
[17] = Postemergence, 125 g ai/ha, visual rating after 13 to 15 days, scale 0 (no effect) to 100 (complete control)
[18] = Postemergence, 250 g ai/ha, scale 0 to 100 (0 no effect, 100 complete control)

For `O=C1CCCC(O)=C1C(=O)c1cnc(-c2ccc(F)cc2)n(C2CCCCC2)c1=O` [Compound 197], the “Plant response rating, Surinam Grass” value [1, 11] was 50, the “Plant response rating, Surinam Grass” value [1, 12] was 55 and the “Plant response rating, Surinam Grass” value [1, 13] was 70. The “Plant response rating, Blackgrass” value [2, 11] was 0, the “Plant response rating, Blackgrass” value [2, 12] was 10 and the “Plant response rating, Blackgrass” value [2, 14] was 10. The “Plant response rating, Blackgrass” value [2, 13] was 45, the “Plant response rating, Cocklebur” value [3, 11] was 80 and the “Plant response rating, Cocklebur” value [3, 12] was 100. The “Plant response rating, Cocklebur” value [3, 14] was 100, the “Plant response rating, Cocklebur” value [3, 13] was 100 and the “Plant response rating, Kochia” value (kochia (Kochia scoparia); [11]) was 65. The “Plant response rating, Kochia” value (kochia (Kochia scoparia); [12]) was 80, the “Plant response rating, Kochia” value (kochia (Kochia scoparia); [14]) was 95 and the “Plant response rating, Kochia” value (kochia (Kochia scoparia); [13]) was 98. The “Plant response rating, Lambsquarters” value [4, 11] was 95, the “Plant response rating, Lambsquarters” value [4, 12] was 100 and the “Plant response rating, Lambsquarters” value [4, 14] was 100. For the same compound, the “Plant response rating, Lambsquarters” value [4, 13] was 100, the “Plant response rating, Pigweed” value [5, 11] was 80 and the “Plant response rating, Pigweed” value [5, 12] was 90. For the same compound, the “Plant response rating, Pigweed” value [5, 13] was 100, the “Plant response rating, Soybean” value (soybean (Glycine max); [11]) was 98 and the “Plant response rating, Soybean” value (soybean (Glycine max); [12]) was 100. For the same compound, the “Plant response rating, Soybean” value (soybean (Glycine max); [13]) was 100, the “Plant response rating, Velvetleaf” value [6, 11] was 80 and the “Plant response rating, Velvetleaf” value [6, 12] was 80. The “Plant response rating, Velvetleaf” value [6, 13] was 100, the “Plant response rating, Wheat” value [7, 11] was 0 and the “Plant response rating, Wheat” value [7, 12] was 0. The “Plant response rating, Wheat” value [7, 13] was 40, the “Plant response rating, Oat, Wild” value (wild oat (Avena fatua); [11]) was 40 and the “Plant response rating, Oat, Wild” value (wild oat (Avena fatua); [12]) was 40. For the same compound, the “Plant response rating, Oat, Wild” value (wild oat (Avena fatua); [13]) was 85, the “Plant response rating, Canarygrass” value [8, 11] was 5 and the “Plant response rating, Canarygrass” value [8, 12] was 30. For the same compound, the “Plant response rating, Canarygrass” value [8, 14] was 40, the “Plant response rating, Canarygrass” value [8, 13] was 60 and the “Plant response rating, Chickweed” value [9, 11] was 100. The “Plant response rating, Chickweed” value [9, 12] was 100, the “Plant response rating, Chickweed” value [9, 14] was 100 and the “Plant response rating, Chickweed” value [9, 13] was 100. The “Plant response rating, Windgrass” value [10, 11] was 10, the “Plant response rating, Windgrass” value [10, 12] was 50 and the “Plant response rating, Windgrass” value [10, 13] was 98.

In the case of `O=C(C1=C(O)C2CCC(C2)C1=O)c1cnc(-c2ccsc2)n(CC2CCCO2)c1=O` (stereo not shown) [Compound 229], the “Plant response rating, Surinam Grass” value [1, 11] is reported as 65, the “Plant response rating, Surinam Grass” value [1, 12] is reported as 70 and the “Plant response rating, Surinam Grass” value [1, 13] is reported as 90. The “Plant response rating, Blackgrass” value [2, 11] was 0, the “Plant response rating, Blackgrass” value [2, 12] was 0 and the “Plant response rating, Blackgrass” value [2, 14] was 5. The “Plant response rating, Blackgrass” value [2, 13] was 30, the “Plant response rating, Cocklebur” value [3, 11] was 85 and the “Plant response rating, Cocklebur” value [3, 12] was 90. The “Plant response rating, Cocklebur” value [3, 14] was 100, the “Plant response rating, Cocklebur” value [3, 13] was 100 and the “Plant response rating, Kochia” value (kochia (Kochia scoparia); [11]) was 55. For the same compound, the “Plant response rating, Kochia” value (kochia (Kochia scoparia); [12]) was 70, the “Plant response rating, Kochia” value (kochia (Kochia scoparia); [14]) was 80 and the “Plant response rating, Kochia” value (kochia (Kochia scoparia); [13]) was 100. The “Plant response rating, Lambsquarters” value [4, 11] was 85, the “Plant response rating, Lambsquarters” value [4, 12] was 95 and the “Plant response rating, Lambsquarters” value [4, 14] was 95. The “Plant response rating, Lambsquarters” value [4, 13] was 98, the “Plant response rating, Pigweed” value [5, 11] was 80 and the “Plant response rating, Pigweed” value [5, 12] was 95. For the same compound, the “Plant response rating, Pigweed” value [5, 13] was 100, the “Plant response rating, Soybean” value (soybean (Glycine max); [11]) was 95 and the “Plant response rating, Soybean” value (soybean (Glycine max); [12]) was 98. The “Plant response rating, Soybean” value (soybean (Glycine max); [13]) was 98, the “Plant response rating, Velvetleaf” value [6, 11] was 75 and the “Plant response rating, Velvetleaf” value [6, 12] was 75. For the same compound, the “Plant response rating, Velvetleaf” value [6, 13] was 85, the “Plant response rating, Wheat” value [7, 11] was 0 and the “Plant response rating, Wheat” value [7, 12] was 0. For the same compound, the “Plant response rating, Wheat” value [7, 13] was 35, the “Plant response rating, Oat, Wild” value (wild oat (Avena fatua); [11]) was 0 and the “Plant response rating, Oat, Wild” value (wild oat (Avena fatua); [12]) was 5. The “Plant response rating, Oat, Wild” value (wild oat (Avena fatua); [13]) was 35, the “Plant response rating, Canarygrass” value [8, 11] was 5 and the “Plant response rating, Canarygrass” value [8, 12] was 15. The “Plant response rating, Canarygrass” value [8, 14] was 50, the “Plant response rating, Canarygrass” value [8, 13] was 60 and the “Plant response rating, Chickweed” value [9, 11] was 70. The “Plant response rating, Chickweed” value [9, 12] was 85, the “Plant response rating, Chickweed” value [9, 14] was 90 and the “Plant response rating, Chickweed” value [9, 13] was 98. For the same compound, the “Plant response rating, Windgrass” value [10, 11] was 0, the “Plant response rating, Windgrass” value [10, 12] was 40 and the “Plant response rating, Windgrass” value [10, 13] was 65.

With `Cc1ccc(-c2ncc(C(=O)C3=C(O)CCCC3=O)c(=O)n2-c2ccccc2)cc1` [Compound 80] the “Plant response rating, Surinam Grass” value [1, 15] was 45, the “Surinam Grass plant response rating (0 to 100 scale)” value [1, 16] was 45 and the “Plant response rating, Surinam Grass” value [1, 17] was 60. For the same compound, the “Plant response rating, Surinam Grass” value [1, 18] was 65, the “Plant response rating, Blackgrass” value [2, 15] was 0 and the “Blackgrass plant response rating (0 to 100 scale)” value [2, 16] was 0. The “Plant response rating, Blackgrass” value [2, 17] was 5, the “Plant response rating, Blackgrass” value [2, 18] was 10 and the “Plant response rating, Cocklebur” value [3, 15] was 0. For the same compound, the “Cocklebur plant response rating (0 to 100 scale)” value [3, 16] was 10, the “Plant response rating, Cocklebur” value [3, 17] was 45 and the “Plant response rating, Cocklebur” value [3, 18] was 65. The “Plant response rating, Kochia” value (kochia (Kochia scoparia); [15]) was 0, the “Kochia plant response rating (0 to 100 scale)” value (kochia (Kochia scoparia); [16]) was 20 and the “Plant response rating, Kochia” value (kochia (Kochia scoparia); [17]) was 20. For the same compound, the “Plant response rating, Kochia” value (kochia (Kochia scoparia); [18]) was 60, the “Plant response rating, Lambsquarters” value [4, 15] was 95 and the “Lambsquarters plant response rating (0 to 100 scale)” value [4, 16] was 95. For the same compound, the “Plant response rating, Lambsquarters” value [4, 17] was 98, the “Plant response rating, Lambsquarters” value [4, 18] was 100 and the “Plant response rating, Pigweed” value [5, 15] was 100. For the same compound, the “Pigweed plant response rating (0 to 100 scale)” value [5, 16] was 100, the “Plant response rating, Pigweed” value [5, 17] was 100 and the “Plant response rating, Pigweed” value [5, 18] was 100. The “Plant response rating, Soybean” value (soybean (Glycine max); [15]) was 75, the “Soybean plant response rating (0 to 100 scale)” value (soybean (Glycine max); [16]) was 80 and the “Plant response rating, Soybean” value (soybean (Glycine max); [17]) was 90. For the same compound, the “Plant response rating, Soybean” value (soybean (Glycine max); [18]) was 95, the “Plant response rating, Velvetleaf” value [6, 15] was 85 and the “Velvetleaf plant response rating (0 to 100 scale)” value [6, 16] was 100. The “Plant response rating, Velvetleaf” value [6, 17] was 100, the “Plant response rating, Velvetleaf” value [6, 18] was 100 and the “Plant response rating, Wheat” value [7, 15] was 5. For the same compound, the “Wheat plant response rating (0 to 100 scale)” value [7, 16] was 10, the “Plant response rating, Wheat” value [7, 17] was 20 and the “Plant response rating, Wheat” value [7, 18] was 35. For the same compound, the “Plant response rating, Oat, Wild” value (wild oat (Avena fatua); [15]) was 20, the “Oat, Wild plant response rating (0 to 100 scale)” value (wild oat (Avena fatua); [16]) was 30 and the “Plant response rating, Oat, Wild” value (wild oat (Avena fatua); [17]) was 40. The “Plant response rating, Oat, Wild” value (wild oat (Avena fatua); [18]) was 50, the “Plant response rating, Canarygrass” value [8, 15] was 45 and the “Canarygrass plant response rating (0 to 100 scale)” value [8, 16] was 50. The “Plant response rating, Canarygrass” value [8, 17] was 50, the “Plant response rating, Canarygrass” value [8, 18] was 70 and the “Plant response rating, Chickweed” value [9, 15] was 90. The “Chickweed plant response rating (0 to 100 scale)” value [9, 16] was 98, the “Plant response rating, Chickweed” value [9, 17] was 100 and the “Plant response rating, Chickweed” value [9, 18] was 100. For the same compound, the “Plant response rating, Windgrass” value [10, 15] was 50, the “Windgrass plant response rating (0 to 100 scale)” value [10, 16] was 60 and the “Plant response rating, Windgrass” value [10, 17] was 70. The “Plant response rating, Windgrass” value [10, 18] was 80.
